Data on 2 compounds can be found in paper PMC10539439 (Pharmacological Reports, 2023).

As usually defined, the Tmax is the time at which the peak concentration occurs. The CL/F is clearance divided by bioavailability, as obtained after extravascular dosing. The Vd/F is the apparent distribution volume after extravascular dosing. What is called half-life is how long it takes for the measured level to halve.

The nature of data set [1]: Distribution in brain after ip administration. The settings on record: for Tmax / concentration at 5 min / concentration at 15 min / concentration at 30 min / concentration at 60 min / concentration at 120 min / concentration at 240 min: male, Wistar, rat, brain; for concentration at 5 min / concentration at 15 min / concentration at 30 min / concentration at 60 min / concentration at 120 min / concentration at 240 min: intraperitoneal, mean; for concentration at 5 min: 5 min after administration; for concentration at 15 min: 15 min after administration; for concentration at 30 min: 30 min after administration; for concentration at 60 min: 60 min after administration; for concentration at 120 min: 120 min after administration; for concentration at 240 min: 240 min after administration; for Penetration into the brain: summary table. Format: in vivo, rat. The procedure: (§1) For the pharmacokinetic study, a group of 56 adult male rats (Wistar, 220–250 g, […]) were used in the experiment. Animals were purchased from the Animal House of the Faculty of Pharmacy of Jagiellonian University Medical College, Krakow, Poland. […] These were then given through an intraperitoneally injections (ip) at a dose of 0.3 mg/kg and 0.4 mg/kg, respectively. Blood samples were collected at 0 min (predose), 5 min, 15 min, 30 min, 60 min, 120 min, and 240 min after compound administration. Blood and brain samples were collected under general anesthesia induced by ip injections of 50 mg/kg ketamine plus 8 mg/kg xylazine. Blood samples were taken in heparinized tubes and immediately centrifuged at 3500 rpm for 10 min, and plasma was collected. Brain and plasma samples were immediately frozen at – 80 ℃ for LC/MS/MS analysis. All experimental procedures were carried out according to EU Directive 2010/63/EU and approved by the I Local Ethics Committee for Animal Experiments of the Jagiellonian University in Krakow, Poland (No. 94/2016).
(§2) The pharmacokinetic parameters were calculated using a non-compartmental approach from the average concentration values, using Phoenix WinNonlin software (Certara, Princeton, NJ 08540 USA). The first-order elimination rate constant (λz) was calculated by linear regression of time versus log concentration. Next, the area under the mean plasma and the concentration in the brain versus the time curve (AUC0→t) were estimated using the log-linear trapezoidal rule (Eq. 1), where Cn is the concentration of the last sampling of each compound1 AUC0→t=∑i=1n(Ci+Ci+1)/2·ti+1-ti+Cn/λz.
(§3) The quantification of compounds in plasma and brain samples was performed using the Sciex API 3200 triple quadrupole mass spectrometer (Concord, Ontario, Canada) equipped with an electrospray (ESI) ionization interface. This instrument was coupled to an Elite LaChrom (Hitachi, USA) HPLC system. Data acquisition and processing were performed using Sciex Analyst 1.5.2 data collection and integration software. After preparation, the samples were injected (20 µL) onto XBridge C18 (2.1 mm × 30 mm, 3.5 μm, Waters, Milford, Massachusetts, USA) analytical column. The mobile phase consisted of 0.1% formic acid in acetonitrile (A) and 0.1% formic acid in water (B) was delivered in a gradient elution starting with 90% of eluent B, increasing for 2 min to 90% of eluent A, maintained for 3 min, and then returned for 5 min to 90% of eluent B, and maintained 90% of eluent B during 5 min at a flow rate of 300 µL/min. The total analysis time was 10 min. […] The ion spray source settings were as follows: spray voltage: 5.5 kV, heater temperature: 400 °C, curtain gas: 10 psi, source gas 1: 20 psi, and source gas 2: 20 psi.
Further dilutions were performed using the same solvent to prepare working standard solutions of the analyte at the following concentrations: 0.025, 0.05, 0.1, 0.25, 0.5, 1.0, 2.5, 5.0, 10, 25, and 50 µg/mL for calibration curve samples (CC) and 0.025, 0.075, 2.2, and 4.5 µg/mL for quality control samples (QC). To prepare samples for calibration curve or quality control samples, 45 µL of the matrix (plasma or brain homogenate) was added with 5 µL of internal standard solution (1 µg/mL) obtaining the final concentration of 100 ng/mL and 5 µL of standard working solutions at the needed CC or QC concentration levels. After the addition of the standard solution, the samples were mixed and purified.
A sample volume of 50 µL of plasma or brain homogenate was transferred to the clean Eppendorf tube and spiked with 5 µL of IS solution (1 µg/mL) obtaining the final concentration of 100 ng/mL. After 5 min of mixing (1500 rpm) proteins were precipitated using 200 µL ACN. After 10 min of sample shaking (1500 rpm), the incubation step was performed (10 min, 4 °C). The samples were then centrifuged (10,000 rpm, 10 min, 4 °C) and the supernatant was transferred to chromatographic vials for LC/MS/MS analysis.

The nature of data set [2]: Pharmacokinetics in plasma after ip administration. The data set is classed as in vivo, rat. The settings on record: for concentration at 5 min / concentration at 15 min / concentration at 30 min / concentration at 60 min / concentration at 120 min / concentration at 240 min / CL/F / Tmax / Vd/F / half-life: male, Wistar, plasma; for concentration at 5 min / concentration at 15 min / concentration at 30 min / concentration at 60 min / concentration at 120 min / concentration at 240 min / CL/F / Tmax / Vd/F / half-life / volume of distribution: rat; for concentration at 5 min / concentration at 15 min / concentration at 30 min / concentration at 60 min / concentration at 120 min / concentration at 240 min: intraperitoneal, mean; for concentration at 5 min: 5 min after administration; for concentration at 15 min: 15 min after administration; for concentration at 30 min: 30 min after administration; for concentration at 60 min: 60 min after administration; for concentration at 120 min: 120 min after administration; for concentration at 240 min: 240 min after administration; for CL/F / Tmax / Vd/F / half-life / t0.5 terminal half-life / volume of distribution: ip; for half-life / t0.5 terminal half-life: rat plasma; for half-life / t0.5 terminal half-life / volume of distribution: Guanabenz 0.3 mg/kg, 4-OH-Guanabenz 0.4 mg/kg; for half-life: read-out: t0.5 terminal half-life. Here is the method: as §1, with “Poland. During the habituation period, the groups of 4 rats were kept in a plastic cage at a controlled room temperature (22 ± 2 ℃), humidity (55 ± 10%), full-spectrum cold white light (350–400 lx), in 12 h light/dark cycles (the lights on at 7:00 am, and off at 19:00 pm), and had free access to standard laboratory pellet and tap water.” for “Poland.”
as §2
The area under the first-moment curve (AUMC0→t) was estimated by calculating of the total area under the first-moment curve using Eq. 2, where tn is the time of last sampling2 AUMC0→t=∑i=1n(ti·Ci+ti+1·Ci+1)/2·ti+1-ti+(tn·Cn)/λz+Cn/λz2.
Mean residence time (MRT, Eq. 3) was calculated as3 MRT=AUMC0→t/AUC0→t.
Total clearance (ClT, Eq. 4) was calculated as4 C1T=F·Di.p./AUC0→t.
as §3
Further dilutions were performed using the same solvent to prepare working standard solutions of the analyte at the following concentrations: 0.025, 0.05, 0.1, 0.25, 0.5, 1.0, 2.5, 5.0, 10, 25, and 50 µg/mL for calibration curve samples (CC) and 0.025, 0.075, 2.2, and 4.5 µg/mL for quality control samples (QC). […]

Setting [3] is: rat brain, ip, Guanabenz 0.3 mg/kg, 4-OH-Guanabenz 0.4 mg/kg.

For the compound `N=C(N)N/N=C/c1c(Cl)cccc1Cl` [Guanabenz], the Tmax in data set [1] (ip) is 1 h. Also, in data set [1] (ip, 0.3 mg/kg), the Tmax was at most 1 h. In data set [1], this compound showed a concentration at 5 min of 45.6 ng/g, a concentration at 15 min of 110 ng/g, a concentration at 30 min of 164 ng/g and a concentration at 60 min of 183 ng/g. Also, in data set [1], the concentration at 120 min came out at 92.5 ng/g, the concentration at 240 min turned out to be 58.6 ng/g and the “Penetration into the brain” value is recorded as “Good”. Also, the t0.5 in data set [1] (setting [3]) is listed as 116.1 min. Besides, in data set [2], the concentration at 5 min was 10.2 ng/mL, the concentration at 15 min amounted to 91.2 ng/mL, the concentration at 30 min came out at 95.1 ng/mL and the concentration at 60 min came to 14.2 ng/mL. For the same compound, in data set [2], the concentration at 120 min stood at 26.1 ng/mL, the concentration at 240 min was found to be 8.53 ng/mL, the CL/F is 13.5 mL/min/kg and the Tmax was 0.5 h. Besides, in data set [2], the Vd/F turned out to be 1.61 L/kg, the half-life is around 1.38 h, the t0.5 terminal half-life worked out at 1.38 h and the volume of distribution is given as 1.6 L/kg.

With `Cl.N=C(N)NN=Cc1c(Cl)cc(O)cc1Cl` [4-OH-Guanabenz, 2-[(2,6-Dichloro-4-hydroxyphenyl)methylene]hydrazinecarboximidamide Hydrochloride], the Tmax in data set [1] (ip) was 0.25 h. Moreover, in data set [1], the concentration at 5 min amounted to 13.3 ng/g, the concentration at 15 min turned out to be 64.5 ng/g, the concentration at 30 min was 23.9 ng/g and the concentration at 60 min was 4.54 ng/g. In data set [1], the concentration at 120 min came to 3.94 ng/g, the concentration at 240 min came to 3.2 ng/g and the “Penetration into the brain” value is “Poor”. In data set [1] (setting [3]), the AUC0→t is 2573 ng ⋅ min/g and the t0.5 amounted to 112.7 min. In data set [2], this compound returned a concentration at 5 min of 54.3 ng/mL, a concentration at 15 min of 101 ng/mL, a concentration at 30 min of 20.2 ng/mL and a concentration at 60 min of 41.9 ng/mL. In addition, in data set [2], the concentration at 120 min amounted to 8.65 ng/mL, the concentration at 240 min was determined as 6.52 ng/mL, the CL/F worked out at 17.7 mL/min/kg and the Tmax was 0.25 h. In data set [2], the Vd/F was found to be 1.75 L/kg, the half-life is around 1.15 h, the t0.5 terminal half-life stood at 1.14 h and the volume of distribution turned out to be 1.7 L/kg.
